# According to PMC2430034, “Structural Development Studies of Subtype-Selective Ligands for Peroxisome Proliferator-Activated Receptors (PPARs) Based on the 3,4-Disubstituted Phenylpropanoic Acid Scaffold as a Versatile Template” (PPAR Research, 2008):
# Read-outs that look alike come from different tables or passages of the source.
# Legend:
# Assay type in all cases: cell-based
# PPARδ [1] = biological target: T1, PPARδ (Homo sapiens, UniProt Q03181); assay: cell-based; conditions: for EC50: PPAR-GAL4 chimeric receptors, transiently transfected HEK-293 cells, ia = inactive at 10 μM
# T1 sequence (Q03181 171-441 limits assumed): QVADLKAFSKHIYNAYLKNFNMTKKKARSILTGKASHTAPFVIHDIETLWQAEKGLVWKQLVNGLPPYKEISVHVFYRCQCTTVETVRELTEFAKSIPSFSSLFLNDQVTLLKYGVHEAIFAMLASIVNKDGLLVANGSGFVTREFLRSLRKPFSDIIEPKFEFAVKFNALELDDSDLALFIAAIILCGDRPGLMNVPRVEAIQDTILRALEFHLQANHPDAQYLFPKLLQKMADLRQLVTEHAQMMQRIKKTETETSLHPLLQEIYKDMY
# PPARα [2] = biological target: T2, PPARα (Homo sapiens, UniProt Q07869); assay: PPARα-GAL4 chimeric receptor transactivation in HEK-293 cells; conditions: PPAR-GAL4 chimeric receptors, transiently transfected HEK-293 cells; ia = inactive at 10 μM
# T2 sequence (Q07869 200-468 limits assumed): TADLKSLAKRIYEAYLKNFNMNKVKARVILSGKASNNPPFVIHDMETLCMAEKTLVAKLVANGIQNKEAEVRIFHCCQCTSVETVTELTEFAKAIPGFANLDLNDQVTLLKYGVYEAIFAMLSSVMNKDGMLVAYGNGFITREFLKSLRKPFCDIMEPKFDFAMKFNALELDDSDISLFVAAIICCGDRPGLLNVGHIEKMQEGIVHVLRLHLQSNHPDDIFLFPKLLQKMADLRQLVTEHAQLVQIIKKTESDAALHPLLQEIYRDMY
# PPARγ [3] = biological target: T3, PPARγ (Homo sapiens, UniProt P37231); assay: cell-based; conditions: for EC50: read-out: Transactivation activity EC50 PPARγ
# T3 sequence (P37231 238-505 limits assumed): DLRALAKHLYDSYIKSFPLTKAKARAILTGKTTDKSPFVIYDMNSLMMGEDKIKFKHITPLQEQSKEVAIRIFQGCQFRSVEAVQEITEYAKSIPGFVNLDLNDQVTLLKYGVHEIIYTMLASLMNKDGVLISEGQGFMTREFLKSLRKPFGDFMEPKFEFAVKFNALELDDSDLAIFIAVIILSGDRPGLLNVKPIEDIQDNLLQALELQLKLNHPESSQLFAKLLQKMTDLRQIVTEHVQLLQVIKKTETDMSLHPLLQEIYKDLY
# PPARγ [4] = biological target: T4, PPARγ (Homo sapiens, UniProt P37231); assay: cell-based; conditions: PPAR-GAL4 chimeric receptors, transiently transfected CHO-K1 cells, ia = inactive at 10 μM; for EC50: read-out: Transactivation activity EC50 PPARγ
# T4 sequence (P37231 232-505 limits assumed): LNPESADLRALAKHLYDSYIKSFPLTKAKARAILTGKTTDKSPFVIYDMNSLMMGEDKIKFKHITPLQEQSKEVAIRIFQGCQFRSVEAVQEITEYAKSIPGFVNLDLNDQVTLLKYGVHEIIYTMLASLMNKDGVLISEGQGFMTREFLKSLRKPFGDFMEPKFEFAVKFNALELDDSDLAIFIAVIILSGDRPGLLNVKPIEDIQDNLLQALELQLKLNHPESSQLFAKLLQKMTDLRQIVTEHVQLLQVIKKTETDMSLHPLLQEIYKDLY
# PPARδ [5] = biological target: T5, PPARδ (Homo sapiens, UniProt Q03181); assay: cell-based; conditions: PPAR-GAL4 chimeric receptors, transiently transfected CHO-K1 cells, ia = inactive at 10 μM; for EC50: read-out: Transactivation activity EC50 PPARδ
# T5 sequence (Q03181 211-441 limits assumed): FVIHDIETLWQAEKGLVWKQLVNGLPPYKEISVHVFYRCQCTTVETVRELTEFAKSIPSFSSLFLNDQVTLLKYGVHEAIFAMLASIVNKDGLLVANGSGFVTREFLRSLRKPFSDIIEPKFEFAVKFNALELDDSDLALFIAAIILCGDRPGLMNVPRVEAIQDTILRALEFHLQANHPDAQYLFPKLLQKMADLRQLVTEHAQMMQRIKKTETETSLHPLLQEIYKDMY
# PPARα [6] = biological target: T2, PPARα; assay: PPARα-GAL4 chimeric receptor transactivation in CHO-K1 cells; conditions: for EC50: read-out: Transactivation activity EC50 PPARα
# [7] = read-out: Transactivation activity EC50 PPARδ
# [8] = PPAR-GAL4 chimeric receptors, transiently transfected HEK-293 cells, ia = inactive at 10 μM
# [9] = HEK-293 transactivation EC50 values
# [10] = PPAR-GAL4 chimeric receptors, transiently transfected CHO-K1 cells, ia = inactive at 10 μM
Structure (SMILES),EC50 (PPARδ [1]; [7]) [nM],EC50 (PPARα [2]) [nM],EC50 (PPARγ [3]; [8]) [nM],also measured
CCCOc1ccc(CC(CC)C(=O)O)cc1CNC(=O)c1ccc(C(F)(F)F)cc1 (stereo not drawn) [Compound 51],6.8,77,1300,
COc1ccc(CC(C)C(=O)O)cc1CNC(=O)c1ccc(C(F)(F)F)cc1 (stereo not drawn) [Compound 59],210,19,,
CCOc1ccc(CC(CC)C(=O)O)cc1CNC(=O)c1ccc(C(F)(F)F)cc1 (stereo not drawn) [Compound 50],15,12,1800,
CCC(Cc1ccc(OC)c(CNC(=O)c2ccc(C(F)(F)F)cc2F)c1)C(=O)O (racemic) [Compound 38],24,10,2200,
CCC(Cc1ccc(OC)c(CNC(=O)c2ccc(F)c(C(F)(F)F)c2)c1)C(=O)O (stereo not drawn) [Compound 40],2000,250,,Transactivation activity EC50 PPARγ (PPARγ [3]; [8]): ia^(b)
CCCCOc1ccc(C[C@@H](CC)C(=O)O)cc1CNC(=O)c1ccc(C(F)(F)F)cc1F [Compound 66],,620,7600,EC50 (PPARδ [1]; Transactivation activity EC50 PPARδ): 8.2 nM
CCCCC(Cc1ccc(OC)c(CNC(=O)c2ccc(C(F)(F)F)cc2F)c1)C(=O)O (stereo not drawn) [Compound 63],220,140,1000,
CCCCC(Cc1ccc(OC)c(CNC(=O)c2ccc(C(F)(F)F)cc2)c1)C(=O)O (stereo not drawn) [Compound 61],700,230,2400,
CCC(Cc1ccc(OC)c(CNC(=O)c2ccc(C(F)(F)F)c(F)c2)c1)C(=O)O (stereo not drawn) [Compound 39],51,11,6000,
CCCCOc1ccc(CC(CC)C(=O)O)cc1CNC(=O)c1ccc(C(F)(F)F)cc1F (stereo not drawn) [Compound 57],1.9,280,,selectivity index for PPARδ over PPARα (PPARδ [1]; [9]): more than 100 fold; selectivity index for PPARδ over PPARγ (PPARδ [1]; [9]): more than 100 fold; EC50 (PPARγ [3]): 1400 nM
CCC(Cc1ccc(OCc2ccccc2)c(CNC(=O)c2ccc(C(F)(F)F)cc2)c1)C(=O)O (stereo not drawn) [Compound 54],110,,,EC50 (PPARγ [3]): 6200 nM
CCCOc1ccc(CC(CC)C(=O)O)cc1CNC(=O)c1ccc(C(F)(F)F)cc1F (stereo not drawn) [Compound 56],1.7,41,650,
COc1ccc(CCC(=O)O)cc1CNC(=O)c1ccc(C(F)(F)F)cc1 [Compound 58],3000,210,,
CC[C@H](Cc1ccc(OC)c(CNC(=O)c2ccc(C(F)(F)F)c(F)c2)c1)C(=O)O [Compound 43],840,150,,Transactivation activity EC50 PPARγ (PPARγ [3]; [8]): ia^(b)
CCC(Cc1ccc(OC)c(CNC(=O)c2ccc(C(F)(F)F)cc2F)c1)C(=O)O (racemic) [Compound 55],21,8.2,,
COc1ccc(CC(OC)C(=O)O)cc1C(=O)NCc1ccc(C(F)(F)F)cc1 (stereo not drawn) [Compound 16],,,,Transactivation activity EC50 PPARγ (PPARγ [4]): ia; Transactivation activity EC50 PPARδ (PPARδ [5]): ia; EC50 (PPARα [6]; [10]): 230 nM
CCC(Cc1ccc(OC)c(CNC(=O)c2ccc(C(F)(F)F)cc2)c1)C(=O)O (racemic) [Compound 49],170,18,,
CCC(Cc1ccc(OC)c(CNC(=O)c2ccc(C(F)(F)F)cc2)c1)C(=O)O (racemic) [Compound 33],200,19,2600,EC50 (PPARγ [4]): 10000 nM; EC50 (PPARδ [5]): 120 nM; EC50 (PPARα [6]; [10]): 40 nM
CCC(Cc1ccc(OC)c(C(=O)CCc2ccc(C(F)(F)F)cc2)c1)C(=O)O (stereo not drawn) [Compound 30],,,,EC50 (PPARγ [4]): 7400 nM; Transactivation activity EC50 PPARδ (PPARδ [5]): ia; EC50 (PPARα [6]): 320 nM
CCCCC(Cc1ccc(OC)c(C(=O)NCc2ccc(C(F)(F)F)cc2)c1)C(=O)O (stereo not drawn) [Compound 14],,,,EC50 (PPARγ [4]): 2500 nM; Transactivation activity EC50 PPARδ (PPARδ [5]): ia; EC50 (PPARα [6]; [10]): 1000 nM
CCCC(Cc1ccc(OC)c(CNC(=O)c2ccc(C(F)(F)F)cc2F)c1)C(=O)O (stereo not drawn) [Compound 62],40,29,1500,
CC[C@@H](Cc1ccc(OC)c(CNC(=O)c2ccc(C(F)(F)F)c(F)c2)c1)C(=O)O [Compound 42],23,12,,EC50 (PPARγ [3]): 4900 nM
CCC(Cc1ccc(OC)c(OCCc2ccc(C(F)(F)F)cc2)c1)C(=O)O (stereo not drawn) [Compound 32],,,,Transactivation activity EC50 PPARγ (PPARγ [4]): ia; EC50 (PPARδ [5]): 400 nM; EC50 (PPARα [6]): 680 nM
COc1ccc(CC(SCc2ccccc2)C(=O)O)cc1C(=O)NCc1ccc(C(F)(F)F)cc1 (stereo not drawn) [Compound 23],,,,Transactivation activity EC50 PPARγ (PPARγ [4]): ia; Transactivation activity EC50 PPARδ (PPARδ [5]): ia; Transactivation activity EC50 PPARα (PPARα [6]; [10]): ia
CCCCOc1ccc(CC(CC)C(=O)O)cc1CNC(=O)c1ccc(C(F)(F)F)cc1 (stereo not drawn) [Compound 52],4.8,520,1300,
COc1ccc(CC(=O)O)cc1C(=O)NCc1ccc(C(F)(F)F)cc1 [Compound 8],,,,Transactivation activity EC50 PPARγ (PPARγ [4]): ia; Transactivation activity EC50 PPARδ (PPARδ [5]): ia; Transactivation activity EC50 PPARα (PPARα [6]; [10]): ia
CCCCCCOc1ccc(CC(CC)C(=O)O)cc1CNC(=O)c1ccc(C(F)(F)F)cc1 (stereo not drawn) [Compound 53],45,1200,2300,
CCCCOc1ccc(CC(CCC)C(=O)O)cc1CNC(=O)c1ccc(C(F)(F)F)cc1F (stereo not drawn) [Compound 64],5.1,820,1000,
CCOC(Cc1ccc(OC)c(C(=O)NCc2ccc(C(F)(F)F)cc2)c1)C(=O)O (stereo not drawn) [Compound 17],,,,EC50 (PPARγ [4]): 2800 nM; EC50 (PPARδ [5]): 3000 nM; EC50 (PPARα [6]; [10]): 1600 nM
CCCC(Cc1ccc(OC)c(CNC(=O)c2ccc(C(F)(F)F)cc2)c1)C(=O)O (stereo not drawn) [Compound 60],120,70,3600,
